Melting point data for 38 molecules are collected here from patent publication US8791118B2, “Pyridopyrazines as highly selective ras-Raf-Mek-Erk signal transduction pathway inhibitors” (Aeterna Zentaris GmbH, priority 2011, dated 2014).

The melting point is the temperature of the solid-liquid transition. `O=C(NCCCCc1ccccc1)Nc1ccc2ncc(-c3ccccc3O)nc2n1` [Compound 133, 1-[3-(2-Hydroxy-phenyl)-pyrido[2,3-b]pyrazin-6-yl]-3-(4-phenyl-butyl)-urea] came in with a melting point of 247 to 248 °C.

On to `O=C(NCCCCc1ccccc1)Nc1ccc2ncc(-c3ccc(CO)cc3)nc2n1` [Compound 182, 1-[3-(4-Hydroxymethyl-phenyl)-pyrido[2,3-b]pyrazin-6-yl]-3-(4-phenyl-butyl)-urea], for which the melting point lay within 213 to 215 °C. Then `Nc1cccc(-c2cnc3ccc(NC(=O)NCCCCc4ccccc4)nc3n2)c1` [Compound 95, 1-[3-(3-Amino-phenyl)-pyrido[2,3-b]pyrazin-6-yl]-3-(4-phenyl-butyl)-urea], with 200 to 203 °C; and `Cl.O=C(NCCCCc1ccccc1)Nc1ccc2ncc(N3CCNCC3)nc2n1`, with 209 to 211 °C.

Turning to `Cn1cc(-c2cnc3ccc(NC(=O)NCCCCc4ccc(F)cc4)nc3n2)cn1` [Compound 99, 1-[4-(4-Fluoro-phenyl)-butyl]-3-[3-(1-methyl-1H-pyrazol-4-yl)-pyrido[2,3-b]pyrazin-6-yl]-urea], the melting point was 197 to 200 °C. Under `COc1ccc(-c2cnc3ccc(NC(=O)N[C@H](C)CCCc4ccccc4)nc3n2)cc1O` [Compound 148, 1-[3-(3-Hydroxy-4-methoxy-phenyl)-pyrido[2,3-b]pyrazin-6-yl]-3-((R)-1-methyl-4-phenyl-butyl)-urea] stands 196 to 198 °C; under `CN1CCN(c2cnc3ccc(NC(=O)NCCCCc4ccccc4)nc3n2)CC1` [Compound 93, 1-[3-(4-Methyl-piperazin-1-yl)-pyrido[2,3-b]pyrazin-6-yl]-3-(4-phenyl-butyl)-urea], 181 to 183 °C; under `Cc1cc(O)ccc1-c1cnc2ccc(NC(=O)NCCCCc3ccccc3)nc2n1` [Compound 106, 1-[3-(4-Hydroxy-2-methyl-phenyl)-pyrido[2,3-b]pyrazin-6-yl]-3-(4-phenyl-butyl)-urea], 207 to 210 °C. The molecule `CCOC(=O)Oc1ccc(-c2cnc3ccc(NC(=O)NCCCCc4ccccc4)nc3n2)cc1` [Compound 132, Carbonic acid ethyl ester 4-{6-[3-(4-phenyl-butyl)-ureido]-pyrido[2,3-b]pyrazin-3-yl}-phenyl ester] yielded a melting point of 212 °C. Under `O=C(NCCCCc1ccccc1)Nc1ccc2ncc(-c3ccc4nc[nH]c4c3)nc2n1` [Compound 94, 1-[3-(3H-Benzoimidazol-5-yl)-pyrido[2,3-b]pyrazin-6-yl]-3-(4-phenyl-butyl)-urea] stands 226 °C; under `C[C@H](CCCc1ccccc1)NC(=O)Nc1ccc2ncc(-c3ccoc3)nc2n1` [Compound 149, 1-(3-Furan-3-yl-pyrido[2,3-b]pyrazin-6-yl)-3-((R)-1-methyl-4-phenyl-butyl)-urea], 218 to 220 °C. Under `O=C(NCCCCc1ccccc1)Nc1ccc2ncc(-c3ccoc3)nc2n1` [Compound 152, 1-(3-Furan-3-yl-pyrido[2,3-b]pyrazin-6-yl)-3-(4-phenyl-butyl)-urea] stands 212 to 216 °C; under `C[C@H](CCCc1ccccc1)NC(=O)Nc1ccc2ncc(-c3ccc(O)c(Cl)c3)nc2n1` [Compound 129, 1-[3-(3-Chloro-4-hydroxy-phenyl)-pyrido[2,3-b]pyrazin-6-yl]-3-((R)-1-methyl-4-phenyl-butyl)-urea], 225 to 228 °C. Under `COc1ccc(-c2cnc3ccc(NC(=O)NCCCCc4ccccc4)nc3n2)c(OC)c1OC` [Compound 92, 1-(4-Phenyl-butyl)-3-[3-(2,3,4-trimethoxy-phenyl)-pyrido[2,3-b]pyrazin-6-yl]-urea] stands 135 to 138 °C; under `Cn1cc(-c2cnc3ccc(NC(=O)NCC4CCc5ccccc5C4)nc3n2)cn1` (centres unmarked) [Compound 111, 1-[3-(1-Methyl-1H-pyrazol-4-yl)-pyrido[2,3-b]pyrazin-6-yl]-3-(1,2,3,4-tetrahydro-naphthalen-2-ylmethyl)-urea], 230 to 233 °C; under `C[C@H](CCCc1ccccc1)NC(=O)Nc1ccc2ncc(-c3cccnc3)nc2n1` [Compound 150, 1-((R)-1-Methyl-4-phenyl-butyl)-3-(3-pyridin-3-yl-pyrido[2,3-b]pyrazin-6-yl)-urea], 218 to 220 °C. In turn, `Cc1ccccc1-c1cnc2ccc(NC(=O)NCCCCc3ccccc3)nc2n1` [Compound 120, 1-(4-Phenyl-butyl)-3-(3-o-tolyl-pyrido[2,3-b]pyrazin-6-yl)-urea] returned a melting point of 158 to 160 °C.

`COc1ccc(-c2cnc3ccc(NC(=O)NCCCCc4ccccc4)nc3n2)cc1O` [Compound 151, 1-[3-(3-Hydroxy-4-methoxy-phenyl)-pyrido[2,3-b]pyrazin-6-yl]-3-(4-phenyl-butyl)-urea] had a melting point of 230 to 232 °C.

For the molecule `C[C@H](CCCc1ccccc1)NC(=O)Nc1ccc2ncc(N3CCCCC3)nc2n1` [Compound 154, 1-((R)-1-Methyl-4-phenyl-butyl)-3-(3-piperidin-1-yl-pyrido[2,3-b]pyrazin-6-yl)-urea], the melting point was in the range of 171 to 174 °C. Then `CCCNc1cnc2ccc(NC(=O)NCCCCc3ccccc3)nc2n1` [Compound 119, 1-(4-Phenyl-butyl)-3-(3-propylamino-pyrido[2,3-b]pyrazin-6-yl)-urea], with 118 to 120 °C; and `N#Cc1cccc(-c2cnc3ccc(NC(=O)NCCCCc4ccccc4)nc3n2)c1` [Compound 138, 1-[3-(3-Cyano-phenyl)-pyrido[2,3-b]pyrazin-6-yl]-3-(4-phenyl-butyl)-urea], with 237 to 240 °C. The molecule `COc1ncccc1-c1cnc2ccc(NC(=O)NCCCCc3ccccc3)nc2n1` [Compound 146, 1-[3-(2-Methoxy-pyridin-3-yl)-pyrido[2,3-b]pyrazin-6-yl]-3-(4-phenyl-butyl)-urea] had a melting point of 194 to 197 °C.

Molecule `C[C@H](CCCc1ccccc1)NC(=O)Nc1ccc2ncc(N3CCN(C)CC3)nc2n1` [Compound 153, 1-((R)-1-Methyl-4-phenyl-butyl)-3-[3-(4-methyl-piperazin-1-yl)-pyrido[2,3-b]pyrazin-6-yl]-urea] displayed a melting point of 172 to 175 °C. Under `COc1ccc(-c2cnc3ccc(NC(=O)NCCCCc4ccccc4)nc3n2)cc1` [Compound 118, 1-[3-(4-Methoxy-phenyl)-pyrido[2,3-b]pyrazin-6-yl]-3-(4-phenyl-butyl)-urea] stands 200 to 203 °C; under `CC(=O)Oc1ccc(-c2cnc3ccc(NC(=O)NCCCCc4ccccc4)nc3n2)cc1` [Compound 107, Acetic acid 4-{6-[3-(4-phenyl-butyl)-ureido]-pyrido[2,3-b]pyrazin-3-yl}-phenyl ester], 220 °C. In turn, `C[C@H](CCCc1ccccc1)NC(=O)Nc1ccc2ncc(-c3ccc(O)cc3)nc2n1` [Compound 147, 1-[3-(4-Hydroxy-phenyl)-pyrido[2,3-b]pyrazin-6-yl]-3-((R)-1-methyl-4-phenyl-butyl)-urea] had a melting point of 226 to 229 °C.

`COc1ccc(CCCCNC(=O)Nc2ccc3ncc(-c4cnn(C)c4)nc3n2)cc1` [Compound 115, 1-[4-(4-Methoxy-phenyl)-butyl]-3-[3-(1-methyl-1H-pyrazol-4-yl)-pyrido[2,3-b]pyrazin-6-yl]-urea]: the melting point fell in the range of 195 to 196 °C.

For `O=C(NCCCCc1ccccc1)Nc1ccc2ncc(-c3ccncc3)nc2n1` [Compound 184, 1-(4-Phenyl-butyl)-3-(3-pyridin-4-yl-pyrido[2,3-b]pyrazin-6-yl)-urea], the melting point lay in the range of 219 to 222 °C. Then `Cc1ccc(CCCCNC(=O)Nc2ccc3ncc(-c4cnn(C)c4)nc3n2)cc1` [Compound 97, 1-[3-(1-Methyl-1H-pyrazol-4-yl)-pyrido[2,3-b]pyrazin-6-yl]-3-(4-p-tolyl-butyl)-urea], with 202 to 204 °C.

`O=C(NCCCCc1ccccc1)Nc1ccc2ncc(-c3ccc(F)cc3O)nc2n1` [Compound 144, 1-[3-(4-Fluoro-2-hydroxy-phenyl)-pyrido[2,3-b]pyrazin-6-yl]-3-(4-phenyl-butyl)-urea] returned a melting point of 248 to 249 °C. Take `O=C(NCCCCc1ccccc1)Nc1ccc2ncc(-c3ccc(O)c(Cl)c3)nc2n1` [Compound 186, 1-[3-(3-Chloro-4-hydroxy-phenyl)-pyrido[2,3-b]pyrazin-6-yl]-3-(4-phenyl-butyl)-urea]: the melting point lay within 241 to 243 °C. Under `COc1cc(Nc2cnc3ccc(NC(=O)NCCCCc4ccccc4)nc3n2)cc(O)c1OC` [Compound 141, 1-[3-(3-Hydroxy-4,5-dimethoxy-phenylamino)-pyrido[2,3-b]pyrazin-6-yl]-3-(4-phenyl-butyl)-urea] stands 136 to 139 °C. Under `Cc1c(-c2cnc3ccc(NC(=O)NCCCCc4ccccc4)nc3n2)cnn1-c1ccccc1` [Compound 113, 1-[3-(5-Methyl-1-phenyl-1H-pyrazol-4-yl)-pyrido[2,3-b]pyrazin-6-yl]-3-(4-phenyl-butyl)-urea] stands 224 to 226 °C. `COc1ccc(-c2cnc3ccc(NC(=O)NCCCCc4ccccc4)nc3n2)cc1S(=O)(=O)N1CCOCC1` [Compound 145, 1-{3-[4-Methoxy-3-(morpholine-4-sulfonyl)-phenyl]-pyrido[2,3-b]pyrazin-6-yl}-3-(4-phenyl-butyl)-urea] registered a melting point of 256 to 258 °C.

For `COc1ccccc1-c1cnc2ccc(NC(=O)NCCCCc3ccccc3)nc2n1` [Compound 124, 1-[3-(2-Methoxy-phenyl)-pyrido[2,3-b]pyrazin-6-yl]-3-(4-phenyl-butyl)-urea], the melting point lay in the range of 173 to 177 °C.

For `Nc1ccccc1-c1cnc2ccc(NC(=O)NCCCCc3ccccc3)nc2n1` [Compound 130, 1-[3-(2-Amino-phenyl)-pyrido[2,3-b]pyrazin-6-yl]-3-(4-phenyl-butyl)-urea], the melting point is 190 to 191 °C. Molecule `COc1ccc(-c2cnc3ccc(NC(=O)N[C@H](C)CCCc4ccccc4)nc3n2)cc1OC` [Compound 98, 1-[3-(3,4-Dimethoxy-phenyl)-pyrido[2,3-b]pyrazin-6-yl]-3-((R)-1-methyl-4-phenyl-butyl)-urea] showed a melting point of 195 to 197 °C.

With `O=C(NCCCCc1ccccc1)Nc1ccc2ncc(-c3cccc(O)c3)nc2n1` [Compound 104, 1-[3-(3-Hydroxy-phenyl)-pyrido[2,3-b]pyrazin-6-yl]-3-(4-phenyl-butyl)-urea], the melting point lay in the range of 226 to 228 °C.
